According to ChEMBL document CHEMBL3885861, “Open TG-GATES”:

Species on record: Rattus norvegicus
Experiment: Open TG-GATES - Regimen: Single
Assay type: toxicity, organism-based, Sprague-Dawley
Parameters: regimen Single, gender Male, age 6 weeks
Conditions: in vivo, po, 100 mg/kg, route gavage, dose level Low; for APTT / Bas / Eos / Fbg / Hb / Ht / Lym / MCH / MCHC / MCV / Mono / Neu / PT / Plat / RBC / Ret / WBC: tissue Blood; for KIDNEY_L / KIDNEY_R / KIDNEY_TOTAL: tissue Kidney; for LIVER: tissue Liver; for A/G / ALP / ALT / AST / BUN / CRE / Ca / Cl / DBIL / GLC / IP / K / LDH / Na / PL / RALB / TBIL / TC / TG / TP / gamma-GTP: tissue Plasma

O=C(O)c1cc(/N=N/c2ccc(S(=O)(=O)Nc3ccccn3)cc2)ccc1O [SULFASALAZINE]
TERMINAL_BW (3 h): 211 g | APTT (3 h): 19.2 s | Bas (3 h): 0% | Eos (3 h): 1% | Fbg (3 h): 216.6 mg/dL | Hb (3 h): 13 g/dL | Ht (3 h): 38.4% | Lym (3 h): 77.2% | MCH (3 h): 21.5 pg | MCHC (3 h): 33.9% | MCV (3 h): 63.4 fL | Mono (3 h): 2.4% | Neu (3 h): 18.6% | PT (3 h): 12.5 s | Plat (3 h): 129.8 x10_4/uL | RBC (3 h): 605.4 x10_4/ul | Ret (3 h): 7.1% | WBC (3 h): 92.9 x10_2/uL | KIDNEY_L (3 h): 1 g | KIDNEY_R (3 h): 0.9 g | KIDNEY_TOTAL (3 h): 1.9 g | LIVER (3 h): 10.2 g | A/G (3 h): 1.6 | ALP (3 h): 984.8 IU/L | ALT (3 h): 37.4 IU/L | AST (3 h): 69.4 IU/L | BUN (3 h): 11 mg/dL | CRE (3 h): 0.4 mg/dL | Ca (3 h): 10.6 mg/dL | Cl (3 h): 102.2 meq/L | DBIL (3 h): 0.068 mg/dL | GLC (3 h): 201.8 mg/dL | IP (3 h): 9.5 mg/dL | K (3 h): 3.7 meq/L | LDH (3 h): 166.6 IU/L | Na (3 h): 140.8 meq/L | PL (3 h): 148 mg/dL | RALB (3 h): 3.3 g/dL | TBIL (3 h): 0.1 mg/dL | TC (3 h): 80 mg/dL | TG (3 h): 59.4 mg/dL | TP (3 h): 5.4 g/dL | gamma-GTP (3 h): 1.2 IU/L | TERMINAL_BW (6 h): 210.8 g | APTT (6 h): 19 s | Bas (6 h): 0% | Eos (6 h): 1% | Fbg (6 h): 218.6 mg/dL | Hb (6 h): 13.2 g/dL | Ht (6 h): 38.5% | Lym (6 h): 73.6% | MCH (6 h): 21.9 pg | MCHC (6 h): 34.3% | MCV (6 h): 63.9 fL | Mono (6 h): 3% | Neu (6 h): 21.2% | PT (6 h): 12.7 s | Plat (6 h): 111 x10_4/uL | RBC (6 h): 603.2 x10_4/ul | Ret (6 h): 7.2% | WBC (6 h): 89.7 x10_2/uL | KIDNEY_L (6 h): 1 g | KIDNEY_R (6 h): 1 g | KIDNEY_TOTAL (6 h): 2 g | LIVER (6 h): 9.7 g | A/G (6 h): 1.6 | ALP (6 h): 986.4 IU/L | ALT (6 h): 35.8 IU/L | AST (6 h): 68.4 IU/L | BUN (6 h): 10.2 mg/dL | CRE (6 h): 0.4 mg/dL | Ca (6 h): 10.6 mg/dL | Cl (6 h): 101.8 meq/L | DBIL (6 h): 0.066 mg/dL | GLC (6 h): 193.6 mg/dL | IP (6 h): 9.7 mg/dL | K (6 h): 3.9 meq/L | LDH (6 h): 198.6 IU/L | Na (6 h): 140.2 meq/L | PL (6 h): 148 mg/dL | RALB (6 h): 3.3 g/dL | TBIL (6 h): 0.1 mg/dL | TC (6 h): 76.6 mg/dL | TG (6 h): 61.2 mg/dL | TP (6 h): 5.4 g/dL | gamma-GTP (6 h): 1.6 IU/L | TERMINAL_BW (9 h): 204.7 g | APTT (9 h): 19.3 s | Bas (9 h): 0% | Eos (9 h): 1% | Fbg (9 h): 225.8 mg/dL | Hb (9 h): 13.2 g/dL | Ht (9 h): 38.8% | Lym (9 h): 82.4% | MCH (9 h): 21.4 pg | MCHC (9 h): 34% | MCV (9 h): 63 fL | Mono (9 h): 3.4% | Neu (9 h): 12.4% | PT (9 h): 12.8 s | Plat (9 h): 113 x10_4/uL | RBC (9 h): 616.6 x10_4/ul | Ret (9 h): 6.7% | WBC (9 h): 76.6 x10_2/uL | KIDNEY_L (9 h): 1 g | KIDNEY_R (9 h): 1 g | KIDNEY_TOTAL (9 h): 2 g | LIVER (9 h): 8.7 g | A/G (9 h): 1.6 | ALP (9 h): 932.8 IU/L | ALT (9 h): 35.4 IU/L | AST (9 h): 63.8 IU/L | BUN (9 h): 9.4 mg/dL | CRE (9 h): 0.3 mg/dL | Ca (9 h): 10.6 mg/dL | Cl (9 h): 102.2 meq/L | DBIL (9 h): 0.068 mg/dL | GLC (9 h): 194.2 mg/dL | IP (9 h): 10.2 mg/dL | K (9 h): 3.8 meq/L | LDH (9 h): 198.8 IU/L | Na (9 h): 139.8 meq/L | PL (9 h): 145.4 mg/dL | RALB (9 h): 3.3 g/dL | TBIL (9 h): 0.1 mg/dL | TC (9 h): 83 mg/dL | TG (9 h): 41.6 mg/dL | TP (9 h): 5.5 g/dL | gamma-GTP (9 h): 1.2 IU/L | TERMINAL_BW (24 h): 221.5 g | APTT (24 h): 17.9 s | Bas (24 h): 0% | Eos (24 h): 1% | Fbg (24 h): 234.6 mg/dL | Hb (24 h): 13.2 g/dL | Ht (24 h): 38.5% | Lym (24 h): 81% | MCH (24 h): 21.2 pg | MCHC (24 h): 34.4% | MCV (24 h): 61.8 fL | Mono (24 h): 2.8% | Neu (24 h): 13.8% | PT (24 h): 12.5 s | Plat (24 h): 123 x10_4/uL | RBC (24 h): 624 x10_4/ul | Ret (24 h): 6.3% | WBC (24 h): 86.3 x10_2/uL | KIDNEY_L (24 h): 1 g | KIDNEY_R (24 h): 1 g | KIDNEY_TOTAL (24 h): 2 g | LIVER (24 h): 10.5 g | A/G (24 h): 1.6 | ALP (24 h): 1020.4 IU/L | ALT (24 h): 40.4 IU/L | AST (24 h): 64.6 IU/L | BUN (24 h): 15.2 mg/dL | CRE (24 h): 0.4 mg/dL | Ca (24 h): 10.8 mg/dL | Cl (24 h): 101.4 meq/L | DBIL (24 h): 0.092 mg/dL | GLC (24 h): 184 mg/dL | IP (24 h): 7.7 mg/dL | K (24 h): 4.1 meq/L | LDH (24 h): 213 IU/L | Na (24 h): 139.8 meq/L | PL (24 h): 158.2 mg/dL | RALB (24 h): 3.5 g/dL | TBIL (24 h): 0.1 mg/dL | TC (24 h): 79.6 mg/dL | TG (24 h): 88.8 mg/dL | TP (24 h): 5.7 g/dL | gamma-GTP (24 h): 1.6 IU/L
